# Results as given in ChEMBL document CHEMBL5523723, “G Protein-Coupled Estrogen Receptor-Mediated Anti-Inflammatory and Mucosal Healing Activity of a Trimethylpyridinol Analogue in Inflammatory Bowel Disease” (J Med Chem, 2024).
# The source made the active and inactive calls. The rule behind the calls is not given here.
# How the values were obtained:
# [1] = Inhibition of IL6 induced adhesion of TPA treated human U-937 cells to human HT-29 cells at 1 uM pretreated with HT-29 for 1 hr followed by U-937 addition along with IL6 stimulation for 3 hrs by fluorescence based microplate reader assay relative to control; format: functional; settings: time 4 hrs
# U-937 [2] = experiment: Inhibition of TNFalpha induced adhesion of TPA treated human U-937 cells to human HT-29 cells at 1 uM pretreated with HT-29 for 1 hr followed by U-937 addition along with TNFalpha stimulation for 3 hrs by fluorescence based microplate reader assay relative to control; format: functional; settings: time 4 hrs
# Rattus norvegicus [3] = experiment: Antiinflammatory activity against TNBS-induced colitis in Sprague-Dawley rat model assessed as recovery of colon weight at 300 mg/kg, po administered for 5 days; format: functional; settings: time 5 day
# Mus musculus [4] = experiment: Antiinflammatory activity against DSS-induced chronic colitis in C57BL/6N/Crl mouse model assessed as recovery of body weight at 300 mg/kg, po administered daily 6 days per week for 5 weeks; format: functional
# Mus musculus [5] = experiment: Antiinflammatory activity against DSS-induced chronic colitis in C57BL/6N/Crl mouse model assessed as recovery of colon weight at 300 mg/kg, po administered daily 6 days per week for 5 weeks; format: functional
# Rattus norvegicus [6] = experiment: Antiinflammatory activity against TNBS-induced colitis in Sprague-Dawley rat model assessed as recovery of body weight at 300 mg/kg, po administered for 5 days; format: functional; settings: time 5 day
# Mus musculus [7] = experiment: Antiinflammatory activity against DSS-induced chronic colitis in C57BL/6N/Crl mouse model assessed as recovery of colon weight at 30 mg/kg, po administered daily 6 days per week for 5 weeks
# Mus musculus [8] = experiment: Antiinflammatory activity against DSS-induced chronic colitis in C57BL/6N/Crl mouse model assessed as recovery of body weight at 30 mg/kg, po administered daily 6 days per week for 5 weeks
# U-937 [9] = experiment: Induction of apoptosis in human U-937 cells assessed as necrotic cells at 10 uM incubated for 24 hrs by Annexin V FITC/PI staining based flow cytometry analysis( Rvb = 0.2 +/- 0.1%); format: functional
# U-937 [10] = experiment: Induction of apoptosis in human U-937 cells assessed as early apoptotic cells at 5 uM incubated for 24 hrs by Annexin V FITC/PI staining based flow cytometry analysis ( Rvb = 0.6 +/- 0.1 %); format: functional
# U-937 [11] = experiment: Induction of apoptosis in human U-937 cells assessed as necrotic cells at 5 uM incubated for 24 hrs by Annexin V FITC/PI staining based flow cytometry analysis ( Rvb = 0.2 +/- 0.1%); format: functional
# U-937 [12] = experiment: Induction of apoptosis in human U-937 cells assessed as viable cells at 10 uM incubated for 24 hrs by Annexin V FITC/PI staining based flow cytometry analysis ( Rvb = 95.2 +/- 0.4%); format: functional; settings: read-out: Activity
# HT-29 [13] = experiment: Induction of apoptosis in human HT-29 cells assessed as viable cells at 5 uM incubated for 24 hrs by Annexin V FITC/PI staining based flow cytometry analysis ( Rvb = 99 +/- 0.1%); format: functional; settings: read-out: Activity
# U-937 [14] = experiment: Induction of apoptosis in human U-937 cells assessed as viable cells at 1 uM incubated for 24 hrs by Annexin V FITC/PI staining based flow cytometry analysis ( Rvb = 95.2 +/- 0.4%); format: functional; settings: read-out: Activity
# U-937 [15] = experiment: Induction of apoptosis in human U-937 cells assessed as viable cells at 5 uM incubated for 24 hrs by Annexin V FITC/PI staining based flow cytometry analysis ( Rvb = 95.2 +/- 0.4%); format: functional; settings: read-out: Activity
# HT-29 [16] = experiment: Induction of apoptosis in human HT-29 cells assessed as late apoptotic cells at 10 uM incubated for 24 hrs by Annexin V FITC/PI staining based flow cytometry analysis ( Rvb = 0.7%); format: functional
# U-937 [17] = experiment: Induction of apoptosis in human U-937 cells assessed as early apoptotic cells at 1 uM incubated for 24 hrs by Annexin V FITC/PI staining based flow cytometry analysis ( Rvb = 0.6 +/- 0.1 %); format: functional
# HT-29 [18] = experiment: Induction of apoptosis in human HT-29 cells assessed as early apoptotic cells at 10 uM incubated for 24 hrs by Annexin V FITC/PI staining based flow cytometry analysis ( Rvb = 0%); format: functional
# HT-29 [19] = experiment: Induction of apoptosis in human HT-29 cells assessed as early apoptotic cells at 5 uM incubated for 24 hrs by Annexin V FITC/PI staining based flow cytometry analysis ( Rvb = 0%); format: functional
# HT-29 [20] = experiment: Induction of apoptosis in human HT-29 cells assessed as late apoptotic cells at 1 uM incubated for 24 hrs by Annexin V FITC/PI staining based flow cytometry analysis ( Rvb = 0.7%); format: functional
# HT-29 [21] = experiment: Induction of apoptosis in human HT-29 cells assessed as necrotic cells at 10 uM incubated for 24 hrs by Annexin V FITC/PI staining based flow cytometry analysis ( Rvb = 0.2%); format: functional
# HT-29 [22] = experiment: Induction of apoptosis in human HT-29 cells assessed as necrotic cells at 1 uM incubated for 24 hrs by Annexin V FITC/PI staining based flow cytometry analysis ( Rvb = 0.2%); format: functional
# U-937 [23] = experiment: Induction of apoptosis in human U-937 cells assessed as early apoptotic cells at 10 uM incubated for 24 hrs by Annexin V FITC/PI staining based flow cytometry analysis ( Rvb = 0.6 +/- 0.1 %); format: functional
# U-937 [24] = experiment: Induction of apoptosis in human U-937 cells assessed as necrotic cells at 1 uM incubated for 24 hrs by Annexin V FITC/PI staining based flow cytometry analysis ( Rvb = 0.2 +/- 0.1%); format: functional
# HT-29 [25] = experiment: Induction of apoptosis in human HT-29 cells assessed as necrotic cells at 5 uM incubated for 24 hrs by Annexin V FITC/PI staining based flow cytometry analysis ( Rvb = 0.2%); format: functional
# U-937 [26] = experiment: Induction of apoptosis in human U-937 cells assessed as late apoptotic cells at 1 uM incubated for 24 hrs by Annexin V FITC/PI staining based flow cytometry analysis ( Rvb = 4 +/- 0.2%); format: functional
# U-937 [27] = experiment: Induction of apoptosis in human U-937 cells assessed as late apoptotic cells at 10 uM incubated for 24 hrs by Annexin V FITC/PI staining based flow cytometry analysis ( Rvb = 4 +/- 0.2%); format: functional
# HT-29 [28] = experiment: Induction of apoptosis in human HT-29 cells assessed as viable cells at 10 uM incubated for 24 hrs by Annexin V FITC/PI staining based flow cytometry analysis ( Rvb = 99 +/- 0.1%); format: functional; settings: read-out: Activity
# U-937 [29] = experiment: Induction of apoptosis in human U-937 cells assessed as late apoptotic cells at 5 uM incubated for 24 hrs by Annexin V FITC/PI staining based flow cytometry analysis ( Rvb = 4 +/- 0.2%); format: functional
# HT-29 [30] = experiment: Induction of apoptosis in human HT-29 cells assessed as late apoptotic cells at 5 uM incubated for 24 hrs by Annexin V FITC/PI staining based flow cytometry analysis ( Rvb = 0.7%); format: functional
# HT-29 [31] = experiment: (§1) Mucosal healing effect in TNFalpha induced human HT-29 cells assessed as decrease in epithelial permeability by measuring reduced […] FITC-dextran 4 level at 10 uM pretreated with compound and G15 for 3 hrs followed by TNFalpha addition and subsequent FD4 addition and measured after 2 hrs by fluorescence based assay; format: functional, cell-based; settings: time 5.0 hrs
# HT-29 [32] = experiment: as §1, with “at 0.1 to” for “at”, “pretreated” for “pretreated with compound and G15”; format: functional, cell-based; settings: dose 0.1-10 µM, time 5.0 hrs
# HT-29 [33] = experiment: Induction of apoptosis in human HT-29 cells assessed as viable cells at 1 uM incubated for 24 hrs by Annexin V FITC/PI staining based flow cytometry analysis ( Rvb = 99 +/- 0.1%); format: functional; settings: read-out: Activity
# HT-29 [34] = experiment: Induction of apoptosis in human HT-29 cells assessed as early apoptotic cells at 1 uM incubated for 24 hrs by Annexin V FITC/PI staining based flow cytometry analysis ( Rvb = 0%); format: functional
smiles,measurement,setting,value
Cc1nc(NC(=O)c2ccc(-c3cc(Cl)ccc3Cl)o2)c(C)c(C)c1O,inhibition at 1 µM,[1],69.6%
same,inhibition at 1 µM,U-937 [2],78.2%
COc1ccccc1C(=O)Nc1nc(C)c(O)c(C)c1C,inhibition at 1 µM,[1],44%
same,inhibition at 1 µM,U-937 [2],58%
Cc1ccccc1C(=O)Nc1nc(C)c(O)c(C)c1C,inhibition at 1 µM,[1],41.5%
same,inhibition at 1 µM,U-937 [2],47.3%
Cc1nc(NC(=O)c2sc3ccccc3c2Cl)c(C)c(C)c1O,inhibition at 1 µM,[1],11.4%
Cc1nc(NC(=O)c2ccoc2)c(C)c(C)c1O,inhibition at 1 µM,[1],54.1%
same,inhibition at 1 µM,U-937 [2],60.3%
O=C(O)c1cc(/N=N/c2ccc(S(=O)(=O)Nc3ccccn3)cc2)ccc1O [SULFASALAZINE],Activity,Rattus norvegicus [3],78.4%
same,Activity,Mus musculus [4],22.8%
same,Activity,Mus musculus [5],66.9%
same,Activity,Rattus norvegicus [6],58.3%
Cc1ccc(C(=O)Nc2nc(C)c(O)c(C)c2C)o1,inhibition at 1 µM,[1],70.2%
same,inhibition at 1 µM,U-937 [2],79.9%
Cc1nc(NC(=O)c2sc3cc(Cl)ccc3c2Cl)c(C)c(C)c1O,inhibition at 1 µM,[1],9%
Cc1nc(NC(=O)c2c(-c3ccccc3)noc2C)c(C)c(C)c1O,inhibition at 1 µM,[1],37.8%
same,inhibition at 1 µM,U-937 [2],18.8%
Cc1ccc2c(Cl)c(C(=O)Nc3nc(C)c(O)c(C)c3C)sc2c1,inhibition at 1 µM,[1],8.7%
Cc1nc(NC(=O)c2c(C)noc2C)c(C)c(C)c1O,inhibition at 1 µM,[1],74%
same,inhibition at 1 µM,U-937 [2],85%
C[C@@H]1CCN(C(=O)CC#N)C[C@@H]1N(C)c1ncnc2[nH]ccc12 [TOFACITINIB],Activity,Mus musculus [7],68.2%
same,Activity,Mus musculus [8],29.5%
Cc1nc(NC(=O)c2ccc(F)cc2F)c(C)c(C)c1O,inhibition at 1 µM,[1],62.4%
same,inhibition at 1 µM,U-937 [2],71.4%
Brc1cc2c(cc1[C@@H]1Nc3ccccc3[C@@H]3C=CC[C@@H]31)OCO2,Activity,U-937 [9],0.3%
same,Activity,U-937 [10],6.5%
same,Activity,U-937 [11],0.7%
same,viability at 10 µM,U-937 [12],65.7%
same,viability at 5 µM,HT-29 [13],84.2%
same,viability at 1 µM,U-937 [14],79.6%
same,viability at 5 µM,U-937 [15],74.6%
same,Activity,HT-29 [16],17.1%
same,Activity,U-937 [17],6.8%
same,Activity,HT-29 [18],2.4%
same,Activity,HT-29 [19],1%
same,Activity,HT-29 [20],10.4%
same,Activity,HT-29 [21],0.7%
same,Activity,HT-29 [22],1.6%
same,Activity,U-937 [23],6.2%
same,Activity,U-937 [24],0.5%
same,Activity,HT-29 [25],1.6%
same,Activity,U-937 [26],13.1%
same,Activity,U-937 [27],27.9%
same,viability at 10 µM,HT-29 [28],79.7%
same,Activity,U-937 [29],18.3%
same,Activity,HT-29 [30],13.1%
same,Activity,HT-29 [31],inactive
same,Activity,HT-29 [32],inactive
same,viability at 1 µM,HT-29 [33],86.4%
same,Activity,HT-29 [34],1.6%
Cc1nc(NC(=O)c2cccc(F)c2)c(C)c(C)c1O,inhibition at 1 µM,[1],44.2%
same,inhibition at 1 µM,U-937 [2],54.1%
